Patent publication US12186433B2, “Nanocapsules comprising modified nucleobases and/or nucleosides, hydrogels and oleogels comprising them and uses thereof” (UNIVERSITE D'ANGERS, priority 2017, dated 2025)

Experiments:
B6-KPC3 cells = test: Cellular toxicity, MTS assay, B6-KPC3 cells; assay type: cell-based, mice; details: B6-KPC3 cell line, Cyt-C16 2.5% (w/wLabrafac) at the LNC surface
Procedure: B6-KPC3 cells (pancreas tumor from transgenic KPC mice) (gift from the Department of Oncology and Surgical Sciences of Padova, Pr. Vincenzo Bronte), were grown in suspension at 37° C., 90% humidity, 5% CO2 in DMEM medium, completed with decomplemented FBS (10% v/v), penicillin (100 UI·mL^−1), streptomycin ([…]), amphotericin B ([…]), HEPES 10 mM (1% v/v), L-glutamin 2 mM (1% v/v), and β-mercaptoethanol 20 μM (1% v/v). The cells (3.5·10^3 cells/well in 200-μL medium) were then plated on a 96-well cell culture dish and left to grow for 48 h at 37° C. The cytotoxicitiy of diluted LNCs (diameter 50 or 100 nm), non-loaded or loaded with Cyt-C16 2.5% (w/wLabrafac), in cell culture medium, was determined. Fresh cell culture medium was used as controls. […] The number of living cells was determined using a MTS (3-(4,5-dimethylthiazol-2-yl)-5-(3-carboxymethoxyphenyl)-2-(4-sulfophenyl)-2H-tetrazolium salt) assay (colorimetric assay based on the conversion of a tetrazolium salt into formazan). Formazan absorbance was measured at 492 nm and 750 nm, directly from well plates using a spectrophotometer Multiscan Ascent® MP reader (Thermo Scientific, Courtaboeuf, France), after exposition to MTS (20 μL per well) for 2.5 h at 37° C. The percentage of cell viability was calculated according to the following equation: […]

THP-1 cells = test: Cellular toxicity, MTS assay, THP-1 cells; assay type: cell-based, human; details: THP1 cell line, Cyt-C16 2.5% (w/wLabrafac) at the LNC surface
Procedure: THP-1 cells (human monocyte/macrophage cell line obtained from ATCC, Manassas, VA, USA) were grown in suspension at 37° C., 90% humidity, 5% CO2 in RPMI 1640 medium, completed with decomplemented FBS (10% v/v), penicillin (100 UI·mL^−1), streptomycin ([…]), amphotericin B ([…]), HEPES 10 mM (1% v/v), Pyruvate Sodium 100 mM (1% v/v) and β-mercaptoethanol 20 μM (1% v/v). Cell differentiation was induced in the same medium by adding PMA 200 nM. A 48-h incubation allows the cells to adhere (15·10^3 cells/well in a 96-well cell culture dish). After medium aspiration to eliminate non-adhered cells, cells were washed again with fresh medium.
B6-KPC3 cells (pancreas tumor from transgenic KPC mice) (gift from the Department of Oncology and Surgical Sciences of Padova, Pr. Vincenzo Bronte), were grown in suspension at 37° C., 90% humidity, 5% CO2 in DMEM medium, completed with decomplemented FBS (10% v/v), penicillin (100 UI·mL^−1), streptomycin ([…]), amphotericin B ([…]), HEPES 10 mM (1% v/v), L-glutamin 2 mM (1% v/v), and β-mercaptoethanol 20 μM (1% v/v). […] The cytotoxicitiy of diluted LNCs (diameter 50 or 100 nm), non-loaded or loaded with Cyt-C16 2.5% (w/wLabrafac), in cell culture medium, was determined. […] The percentage of cell viability was calculated according to the following equation: […]

[1] = phase-inversion process
Excerpt: The LNCs formulation was based on a phase-inversion process, from oil-in-water emulsion at low temperature to water-in-oil emulsion at high temperature. The quantities of oil phase (Labrafac), aqueous phase (water and NaCl) and surfactants (Kolliphor and Span 80) for each formulation were precisely weighed. For 25 nm-diameter LNCs, mLabrafac=0.6 g, mKol=1.8 g, mSpan80=0.3 g, mWater=1.3 g and mNaCl=0.054 g; for 50 nm-diameter LNCs, mLabrafac=1.1168 g, mKol=0.9168 g, mSpan80=0.45 g, mWater=1.5168 g and mNaCl=0.054 g; for 75 nm-diameter LNCs, mLabrafac=1.8 g, mKol=1.3 g, mSpan80=0.3 g, mWater=0.6 g and mNaCl=0.054 g; for 100 nm-diameter LNCs, mLabrafac=1.8 g, mKol=0.95 g, mSpan80=0.3 g, mWater=0.95 g and mNaCl=0.054 g.
Then, Kolliphor and the aqueous phase were added and the mixture was heated to 75° C. under magnetic stirring followed by cooling to 45° C. (rate of 5° C.·min^−1). This cycle was repeated three times and during the last temperature decrease at the phase-inversion temperature (about 60° C.), an irreversible shock was induced by dilution with 2 mL of pure water. Afterwards, slow magnetic stirring was applied to the suspension of LNCs at room temperature, and a hydrogel was spontaneously formed. The gelation process was completed after 24 h at 4° C. Prior completed gelation, a part of the formulation was diluted by a factor of 60 (v/v) with pure water.

[2] = Cyt-C16 concentration in the hydrogels of LNCs by LC-MS/MS; assay type: physicochemical; details: LC-MS/MS recovery in hydrogels
Procedure: The Cyt-C16 concentrations in the hydrogels of LNCs were determined using a LC-MS/MS apparatus: Alliance® 295 system (Waters, Saint-Quentin-en-Yvelines, France) with a Zorbax—Eclipse XDB-C18 column 4.6×150 mm, 3.5 μm, (Agilent Technologies, Santa Clara, United States). The temperature was fixed to 25° C. The mobile phase consisted of methanol with formic acid 0.1% (v/v), at a flow rate of 0.8 mL·min^−1. The injection volume was 10 μL. The total HPLC effluent was directed into a Quattro Micro® triple quadrupole mass spectrometer (Waters Saint-Quentin-en-Yvelines, France). Ionization was achieved using turbo ion spray in positive ion mode. The mass spectrometer operated in multiple reactions monitoring (MRM) mode. The […] transitions for Cyt-C16 was 482>112 and 482>350. Cyt-C16 was diluted in methanol at concentration from 1.25 to 200 ng·mL^−1, in presence of non-loaded LNCs, for the calibration curve. A volume of 50 μL of hydrogels was dissolved with deionized water at 1:4000 (v/v), to obtain a complete dispersion of LNCs. Then, a volume of 100 μL was mixed with 900 μL of methanol. Quantification of Cyt-C16 was achieved after filtration of this solution on 0.22-μm filter.

[3] = solubilized in Labrafac at 70° C., then cooling
Procedure: Cyt-C16 was solubilized in Labrafac at 70° C. under magnetic stirring. […] The viscoelastic properties of the oleogels (Cyt-016 from 0.005 to 0.2 mmol·g^−1 of Labrafac, corresponding to Cyt-C16 from 0.25 to 9.95% (w/wLabrafac)), at 25° C. were measured using a Kinexus® rheometer (Malvern Instruments S.A., United Kingdom), with a plate plate geometry (diameter 20 mm, gap: 800 μm). The oleogels were deposited directly on the bottom plate geometry of the rheometer and the top plate geometry was placed in contact with the sample. Oscillatory strain sweeps at 1 Hz constant frequency were performed to determine the linear regime characterized by constant dynamic moduli (elastic: G′ and viscous: G″ moduli), independent of the strain amplitude. In this regime (0.01% constant shear strain), G′ and G′ were measured as a function of angular frequency (0.1 to 10 Hz). In addition, a temperature ramp from 25 to 70° C. (2° C.·min^−1) was performed at 0.01% constant shear strain and 1 Hz constant angular frequency. All these experiments were repeated in triplicate.

degradation of the molecule by the formulation process [2]: does not degrade
oil gelation of Labrafac after cooling [3]: led to the oil gelation after cooling
SMILES: CCCCCCCCCCCCCCCC(=O)Nc1ccn([C@@H]2O[C@H](CO)[C@@H](O)[C@H]2O)c(=O)n1 [Cyt-C16, 4-(N)-palmitoyl cytidine]
additional cytotoxicity in comparison to native LNCs (B6-KPC3 cells): does not cause additional cytoxicity
additional cytotoxicity in comparison to native LNCs (THP-1 cells): does not cause additional cytoxicity
effect of adding Cyt-C16 to the LNC formulation process [1]: the LNCs suspension turned into a hydrogel
